Assay results from patent publication US8815778B2, “PH modulation method to detect ligand-receptor binding” (The Texas A&M University System, priority 2008, dated 2014).
Like-named read-outs stand apart in the source and are kept apart here.

Tests used:
[1] = pH modulation assay of avidin and streptavidin on biotin-PE bilayers (turn on / turn off); format: binding; settings: 1 μM protein
Excerpt: In addition to being able to detect negatively charged proteins, experiments have also been performed showing that our pH modulation assay can detect positively charged proteins. In this case, the sensor works as a “turn off” rather than as a “turn on” sensor. To investigate this, the binding of avidin, which is a positively charged macromolecule, was studied. The conditions were similar to those described above except where explicitly stated. Under all conditions, a saturation concentration of avidin or streptavidin was employed (1 μM). The bilayers each contained 1 mol % biotin-PE and 0.03 mol % ortho-Texas Red® DHPE.
However, upon adding 20 mol % DOPS (a negatively charged lipid) to the membrane, the assay was rerun at pH 9.25. Under these conditions, it detects avidin in a “turn off” mode and streptavidin in a “turn on” mode.

[2] = literature values; cited from earlier work
[3] = cited from earlier work; for τ0 (fluorescence lifetime): dye concentrations of about 10^−7 M; for φb (quantum yield of photobleaching) / μ (mean number of survived excitation cycles): in water at low irradiances; for μ (mean number of survived excitation cycles): μ calculated from φb
[4] = biotin/streptavidin binding, literature; cited from earlier work
[5] = target: avidin (Gallus gallus, UniProt P02701); assay: Homogeneous pH modulation assay in capillary tubes with Texas Red succinimidyl ester conjugated avidin; format: binding; settings: for fluorescence intensity versus capillary without ligand: 3 μM ortho-Texas Red succinimidyl ester conjugated avidin, PBS pH 7.0
Excerpt: The pH modulation detection assay is amenable monitoring protein-small molecule and protein-protein interactions homogeneously in aqueous solution.
Avidin was labeled with Texas Red® succinimidyl ester as follows: The ortho isomer of Texas Red® succinimidyl ester was separated from the para isomer via thin layer chromatography utilizing silica plates (TLC Silica Gel 60 F254, EMD Chemicals) and 8:92 (methanol:chloroform) solvent. The separated band was removed from the plates with a razor and the ortho-Texas Red® succinimidyl ester was eluted from the silica with the same methanol/chloroform solvent. The dye (21 μg) was dried down with nitrogen in a 2 mL reactive vial containing a magnetic stir bar. To this reaction vial was added 0.5 mL of a 2 mg/mL avidin solution in 1 M sodium bicarbonate. This solution was allowed to stir for two hours at room temperature before being separated in a column containing Bio-Rad BioGel® Fine size purification resin in phosphate buffered saline (PBS, 10 mM potassium phosphate, 150 mM NaCl, 2 mM sodium azide, pH 7.2). This PBS was utilized as the elution buffer as well. The collected Texas-Red® succinimidyl ester-labeled avidin was utilized in the sensing experiments.
The two rectangular capillaries were passivated with a surface coating of bovine serum albumin (BSA). The BSA was then thoroughly rinsed away with phosphate buffered saline (10 mM Na2HPO4, 150 mM NaCl, pH 7.0). Next, a 3 μM solution of ortho-Texas Red® succinimidyl ester conjugated avidin was introduced in PBS into both capillaries. The right capillary additionally contained a 200 μM concentration of biotin (vitamin B7). A line scan across the micrograph is shown on the right. […] It should be noted that avidin is a positively charged protein and the biotin is […] in solution near pH 7.0. Therefore, the local pH near the protein surface is lowered when the small molecule binds.
As a control, the same set of experiments was run as in FIG. 38. However, this time the avidin was conjugated with para-Texas Red® succinimidyl ester (FIG. 39). […]

[6] = pH titration of Texas Red DHPE isomers in supported lipid bilayers (fluorescence); format: physicochemical
Experimental: The peak heights from the ortho-conjugated Texas Red® data in FIG. 5 may be used to obtain a titration curve for this isomer. […] To obtain the y-axis, the peak height at pH 3 was set to 1.0, and all other peak heights are relative to this value.
pH Titration and Buffer Preparation. […] These pH values were chosen to locate the pKA value of ortho-Texas Red® DHPE. The pH could be adjusted to the desired value by the dropwise addition of HCl or NaOH. The pH was measured with a standard glass electrode setup. […] Titration curves for the dye molecules in SLBs were obtained by systematically changing the pH of the bulk solution in a stepwise fashion. Fresh buffer was continuously flowed over the surface until no further changes in fluorescence intensity could be observed. […] Fluorescent micrographs of SLBs were captured with a standard epifluorescence microscope setup (Nikon Eclipse E800).
The fluorescence titration curve of the Texas Red® DHPE dye molecules was monitored in SLBs containing two narrow, parallel lines of bilayers with distinct dye chemistries. […] The second line was identical, but contained para-Texas Red® DHPE instead of the ortho isomer. The surrounding lipid matrix was a 1:1:1 mixture of DOPC, DPPC, and cholesterol.
In this case, however, a saturation concentration of IgG (500 nM) was first introduced into the bulk solution. Moreover, all fluorescence measurements as a function of pH were performed in the presence of 500 nM bulk protein concentration to ensure that the surface remained saturated with protein.
Titration Curves for ortho-Texas Red® DHPE. In a first set of experiments, the pH dependent responses of the ortho- and para-conjugated Texas Red® dyes were investigated in supported POPC bilayers with 0.5 mol % biotin-cap-PE. […] Bulk solutions at a given pH value were continuously flowed into the device until the fluorescence intensity remained constant. Fluorescence images at each pH value were then captured (FIG. 15a).
Titration Curve with a Saturated Protein Layer. […] First, two separated bilayer strips were formed as described above. […] All subsequent measurements were made by tuning the solution pH value, but keeping the bulk IgG concentration constant.

[7] = pH 8.2, POPC, 1 mol % biotin-PE, 0.03 mol % ortho-Texas Red DHPE
[8] = pH 9.25, 20 mol % DOPS added to the membrane

avidin, sequence (P02701 25-152, species assumed): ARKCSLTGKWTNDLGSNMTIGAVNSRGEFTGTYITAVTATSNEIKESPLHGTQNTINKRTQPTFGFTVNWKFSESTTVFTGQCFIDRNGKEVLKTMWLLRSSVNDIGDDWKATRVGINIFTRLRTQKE

Compound | τ0 (fluorescence lifetime) [3] [ns] | φb (quantum yield of photobleaching) [3] | μ (mean number of survived excitation cycles) [3] | further results
avidin: positively charged biotin-binding protein |  |  |  | detection by the pH modulation assay [1, 7]: turn off mode; detection by the pH modulation assay [1, 8]: turn off; isoelectric point (pI) [2]: 10.4
Cc1cc(=O)oc2c3c4c(cc12)CCCN4CCC3 [Coumarin 102] | 5.5 | 4.3 × 10^−4 | 2 300 | σ01 (λ) ([3]; 397 nm): 7.0 (397 nm) 10^−17 cm^2
Coumarin 39 | 5.6 | 1.2 × 10^−3 | 800 | 
CCNc1cc2oc(=O)cc(C(F)(F)F)c2cc1C [Coumarin 307] | 4.5 | 1.5 × 10^−4 | 6 500 | σ01 (λ) ([3]; 397 nm): 5.4 (397 nm) 10^−17 cm^2
streptavidin: negatively charged biotin-binding protein |  |  |  | Kd [4]: ~1 pM; detection by the pH modulation assay [1, 7]: does not detect; detection by the pH modulation assay [1, 8]: turn on; isoelectric point (pI) [2]: 6.4
O=C(O)CCCC[C@@H]1SC[C@@H]2NC(=O)N[C@@H]21 [biotin] |  |  |  | fluorescence intensity versus capillary without ligand ([5]; 200 μM biotin): approximately a factor of five higher; fluorescence difference between the two capillary tubes ([5]; avidin conjugated with para-Texas Red succinimidyl ester (control), saturation biotin): little if any fluorescence difference
Cc1cc(=O)oc2cc(N)ccc12 [Coumarin 120] | 5.0 | 3.4 × 10^−4 | 3 000 | σ01 (λ) ([3]; 365 nm): 3.9 (365 nm) 10^−17 cm^2
Rhodamine 123 | 4.0 | 6.4 × 10^−7 | 1 570 000 | σ01 (λ) ([3]; 515 nm): 12.3 (515 nm) 10^−17 cm^2
Cc1cc(=O)[nH]c2cc(N)ccc12 [Carbostyril 124] | 5.0 | 1.4 × 10^−3 | 700 | σ01 (λ) ([3]; 335 nm): 6.3 (335 nm) 10^−17 cm^2
ortho-sulforhodamine 101-DHPE [ortho-Texas Red® DHPE] |  |  |  | shift of apparent pKA to a more basic value ([6]; 20 mol % DOPS added to the membranes, with respect to FIG. 15b): 0.44 pH units; fluorescence intensity of the band as a function of bulk pH ([6]; POPC bilayers with 0.5 mol % biotin-cap-PE, pH 10.2 to 4.0): showed higher intensity at more acidic pH values; apparent pKA ([6]; SLB containing 0.5 mol % biotin-cap-PE on glass, pH 10.2 to 4.0, ortho/para ratio, FIG. 15b): 7.8±0.1; apparent shift of titration curve midpoint ([6]; saturated anti-biotin IgG layer (500 nM) versus no bound proteins): ~0.35 pH units; pKA of the dye ([6]; supported phospholipid bilayer, pH 3 to 11, FIG. 6): 7.8
biotinylated bovine serum albumin: biotinylated bovine serum albumin (BSA) |  |  |  | fluorescence intensity versus capillary without ligand ([5]; 500 μM biotinylated BSA): approximately a factor of eight higher
CN(C)c1ccc2c(-c3ccccc3C(=O)[O-])c3ccc(N(C)C)cc3[o+]c2c1 [TMR] | 2.3 | 3.3 × 10^−7 | 3 070 000 | σ01 (λ) ([3]; 515 nm): 13.3 (515 nm) 10^−17 cm^2
